Square brackets hold non-standard residues; d marks the D form. Peptide text beside a SMILES is read from it.
Key:
[1] = tested on: IMQ-induced psoriasis in BALB/c mice; assay: Imiquimod-induced psoriasis in mice, ear histopathology; assay type: in vivo, mouse
Description: Female BALB/cAnNCrl mice (Charles River, age 8 to 10 weeks at study start) have been assigned to the following groups (treatment schedule):
In this experiment, two positive controls have been utilized. Firstly, Prednisolone at 10 mg/kg (vehicle: 1% Hydroxyethylcellulose, 0.25% Polysorbate 80, and 0.05% Antifoam in purified water) has been dosed daily and orally (group “Prednisolone”). Secondly, Dexamethasone has been administered at 0.5 mg/kg (vehicle: sterile 0.9% NaCl) on days 1, 4 and 7 via intravenous route.
On day 8, animals have been sacrificed and the tissue (ear) has been fixed in 10% neutral buffered formalin. For histopathology hematoxylin-and-eosin-stained sections (cross cut) have been prepared and microscopic evaluation on the collected tissues from all animals has been performed. Methods and end-points for histopathology were similarly described in the van der Fits (2009) paper in that inflammation, epidermal hyperplasia, epidermal hyperkeratosis (rather than parakeratosis) were observed and recorded for severity grade, whereby the respective methodology from Van der Fits et al. (The Journal of Immunology 2009, 182, P. 5836-5845) is hereby incorporated by reference. Histopathology grading scores were excluded for either skin or ear in animals with secondary inflammatory processes (full thickness epidermal ulcers). Scores were averaged by group and standard deviation and statistical significance were calculated. […] Formalin-fixed, paraffin embedded skin from the dorsal surface of the mouse (BALB/c) was stained with hematoxylin and eosin (H&E) stain and assessed microscopically. An important difference from the above reference and to describe in more detail the observations of the present study: Hyperkeratosis can be defined specifically as orthokeratotic (no retained nuclei) or parakeratotic (retained nuclei). Either can occur normally in various anatomical locations and depending on species; however, both conditions are well defined in particular disease states. The van der Fits paper describes their Imiquimod (IMQ)-induced psoriasis model as causing parakeratotic hyperkeratosis similar to what is seen in the human condition, and that was a defined end-point for this study. However, the Danilenko et al. (Veterinary Pathology 2008 45:563) has shown that many rodent psoriasis models have orthokeratotic hyperkeratosis. […] The more general term ‘hyperkeratosis’ was used for grading end-points and describe in the text what type was seen (primarily orthokeratotic).
1=MI=minimal 2=SL=slight 3=M0=moderate 4=MA=marked 5=SE=severe

[2] = tested on: THP1-PMA-differentiated macrophages; assay: LPS-induced cytokine and chemokine release in PMA differentiated THP1 macrophages (ELISA); assay type: cell-based, human
Excerpt: The technique used is a Sandwich ELISA, which allows measuring the amount of antigen between two layers of antibodies (i.e. capture and detection antibody). The antigen to be measured must contain at least two antigenic sites capable of binding to antibody, since at least two antibodies act in the sandwich. Either monoclonal or polyclonal antibodies can be used as the capture and detection antibodies in Sandwich ELISA systems. Monoclonal antibodies recognize a single epitope that allows fine detection and quantification of small differences in antigen. A polyclonal is often used as the capture antibody to pull down as much of the antigen as possible.
In the following the procedure will be set forth describing how cytokine production from human PMA differentiated THP1 cells challenged by LPS for 6 h was induced in order to test the ability of JNK inhibitors of the present invention, in particular of a JNK inhibitor with SEQ ID NO: 172, to reduce stimulation-induced cytokine release. THP1 cells were stimulated ex-vivo by different ligands for the readout of cytokine release. At non toxic doses, JNK inhibitor efficacy is indicated by the decrease of the cytokine levels as compared to non-treated samples and is monitored by ELISA. The toxicity of the compound are evaluated by the reduction of a tretazolium salt (MTS) to formazan, giving a purple colour.
The cells were counted. The desired number of cells was taken and resuspended in the amount of media necessary to get a dilution of 1'000'000 cells/ml. 100 nM of PMA was added to induce the differentiation of the THP1 from suspension monocytes to adherent macrophages. The cells were plated into the wells in […] medium at plating densities of 100'000 cells/well. After inoculation, the plates were incubated at 37° C., 5% CO2 and 100% relative humidity 3 days to let them differentiate, prior to the addition of experimental drugs.
The plates were treated with 50 µl of medium or a solution of 4× the final desired drug concentration (0, 100 nM, 1, 3, 10 or 30 µM final for JNK compound or at 0, 10, 100 nM, 1, 3 or […] final for the SP600125 positive control). Following drug addition, the plates were incubated for an additional 1 h at 37° C., 5% CO2 and 100% relative humidity. […]
After 6 hours, 100 µl of the supernatant were transferred to new 96 well plates. Those plates were sealed and stored at −20° till the analysis by ELISA (e.g. see example 4) of the secretion of the cytokines.
Analyses of the data are performed as indicated in the ELISA (see example 4). Briefly, for ELISA: Average the triplicate readings for each standard control and each sample. Subtract the average zero standard optical density (O.D). Create a standard curve plotting the log of the cytokine concentration versus the log of the O.D and the best fit line can be determined by regression analysis. If samples have been diluted, the concentration read from the standard curve must be multiplied by the dilution factor. A standard curve should be generated for each set of samples assayed. The outliers data were avoid using Grugg's test. Then the data which weren't in the interval of two times the SD, were discard. […] The independent experiments are pooled (N>3).

[3] = tested on: established type II collagen arthritis in rats
[4] = SEQ ID NO: 172 0.01-5 mg/kg IV QD

## CC(C)C[C@H](NC(=O)[C@H](CC(N)=O)NC(=O)[C@H](CC(C)C)NC(=O)[C@@H](NC(=O)[C@@H](C)NC(=O)[C@@H]1CCCN1C(=O)[C@H](CCCNC(=N)N)NC(=O)[C@@H](CCCCN)NC(=O)[C@@H]1CCCN1C(=O)[C@H](CCCNC(=N)N)NC(=O)[C@@H](CCCNC(=N)N)NC(=O)[C@H](CCCNC(=N)N)NC(=O)[C@H](CCCNC(=N)N)NC(=O)[C@H](CCC(N)=O)NC(=O)[C@@H](CCCNC(=N)N)NC(=O)[C@H](CCCNC(=N)N)NC(=O)[C@H](CCCCN)NC(=O)[C@H](CCCCN)NC(=O)[C@H](N)CCCNC(=N)N)[C@@H](C)O)C(=O)N[C@H](Cc1ccccc1)C(N)=O [SEQ ID NO: 172, rKKRrQRRrRPkRPaTLNLf] (H-[dR]KKR[dR]QRR[dR]RP[dK]RP[dA]TLNL[dF]-NH2)
[1]; high-dose 2 mg/kg IV days 1, 4, 7
  inflammation of the ear (average histopathology grade) vs vehicle-IMQ group: decreased inflammation of the ear
[1]; low-dose 0.02 mg/kg IV days 1, 4, 7
  epidermal hyperkeratosis of the ear, average grades vs vehicle-IMQ group: minimally decreased average grades
[1]; mid-dose 0.2 mg/kg IV days 1, 4, 7, statistically significant, 0.2 mg/kg
  inflammation of the ear (average histopathology grade) vs vehicle-IMQ group: decreased inflammation of the ear
[1]; mid-dose 0.2 mg/kg IV days 1, 4, 7, statistically significant, listed as XG-104, 0.2 mg/kg
  inflammation of the ear (average histopathology grade) vs vehicle-IMQ group: significant differences from the vehicle control group
[1]; mid-dose 0.2 mg/kg IV, not statistically significant
  epidermal hyperplasia of the ear vs vehicle-IMQ group: Minimal decreases in epidermal hyperplasia of the ear
[2]; LPS 6 h (10 ng/ml)
  LPS-induced IL6 release, potency compared with SEQ ID NO: 197, SEQ ID NO: 45 and SP 600125: higher potency
  LPS-induced TNFα release, potency compared with SEQ ID NO: 197, SEQ ID NO: 45 and SP 600125: higher potency
[2]; PMA differentiated macrophages
  LPS-induced TNFα release, potency compared with SEQ ID NO: 197 and SEQ ID NO: 196: higher potency
[2]; PMA differentiated macrophages, LPS 6 h
  LPS-induced IL-6 release, potency compared with SEQ ID NO: 197 and SEQ ID NO: 196: higher potency
[2]; THP1pma, 6 h, 3 or 10 ng/ml LPS
  LPS-induced cytokine and chemokine release (TNF, IL 6, MCP1): blocks LPS-induced cytokine and chemokine release
[3]; 5 mg/kg IV QD, p<0.05 days 4-12
  daily ankle diameter measurements vs disease controls: significantly (p<0.05 by 2-way RM ANOVA) reduced toward normal
[3]; IV QD days 1-14
  adverse effect on organ weights: no adverse effect on organ weights
[3]; [4]
  relative spleen weights: not significantly affected
  relative thymus weights: not significantly affected
